In PubChem BioAssay (NCI) one finds TGI and GI50 data, which are given here for eight compounds.

“And” between values parts separate entries of the source, which are not always exact repeats. Equal values may be shown once.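 Method: 48-hour compound exposure of cells in 96-well plates, five concentrations, linear interpolation of endpoints. GI50: concentration for 50% inhibition of growth. TGI marks complete inhibition of growth.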

For the first assay, the system named is ACHN renal. Nature of the assay: inhibition of tumour cell growth, NCI panel, 48 h.
Regarding `Cc1cnc(NCCCN(C)C)c2c1[nH]c1ccc3cc(O)ccc3c12`, the TGI was 4.89 µM.
`O=C(Nc1ccccc1)c1c(O)[nH]c(=S)[nH]c1=O`: the TGI was 78.7 µM.
`O=C1/C(=C/c2ccc(O)c(O)c2)CCC/C1=C\c1ccc(O)c(O)c1`: the TGI came out at 11 µM.
Compound `NC(=O)NO.O.O.O.O.O.O.O.O.O.O.O.[Ge].[Ge].[Ge].[Ge].[Ge].[O]=[Ge].[O]=[Ge].[O]=[Ge].[O]=[Ge].[O]=[Ge][OH]` had a TGI of over 100 µM.
`O=C(Nc1nc2ccc([N+](=O)[O-])cc2s1)C(=O)C(C1OC(=O)c2ccccc21)[N+](=O)[O-]` (centres undefined) returned a TGI of over 100 µM.
Same read-out and setting: as for `COc1cc2cc(OC)c3cc4c(cc3c2c(OC)c1OC)OCO4`, the figure is over 100 µM.
As to `CCC[CH2][Sn]([CH2]CCC)([S]c1cccc2cccnc12)[S]c1cccc2cccnc12`, the GI50 was 0.193 µM and the TGI came out at 0.396 µM.
The compound `COC(=O)C1(C(C)C)CCc2c(OC)ccc(OC)c2C1=O` (centres undefined) had a TGI of over 100 µM.

Another assay concerns BT-549 breast. As to the kind of experiment: inhibition of tumour cell growth, NCI panel, 48 h.
As for `Cc1cnc(NCCCN(C)C)c2c1[nH]c1ccc3cc(O)ccc3c12`, the TGI was 3.12 µM.
Turning to `O=C(Nc1ccccc1)c1c(O)[nH]c(=S)[nH]c1=O`, the TGI came out at 72 µM.
Consider `O=C1/C(=C/c2ccc(O)c(O)c2)CCC/C1=C\c1ccc(O)c(O)c1`, for which the TGI was over 33.9 µM.

Another assay concerns HOP-62 NSCLC. Nature of the assay: inhibition of tumour cell growth, NCI panel, 48 h.
With `Cc1cnc(NCCCN(C)C)c2c1[nH]c1ccc3cc(O)ccc3c12`, the TGI came out at 1.86 µM.
Turning to `O=C(Nc1ccccc1)c1c(O)[nH]c(=S)[nH]c1=O`, the GI50 was 73.2 µM; the TGI is 82.5 µM and > 250 µM.
`O=C1/C(=C/c2ccc(O)c(O)c2)CCC/C1=C\c1ccc(O)c(O)c1` returned a TGI of 14.5 µM.
Turning to `NC(=O)NO.O.O.O.O.O.O.O.O.O.O.O.[Ge].[Ge].[Ge].[Ge].[Ge].[O]=[Ge].[O]=[Ge].[O]=[Ge].[O]=[Ge].[O]=[Ge][OH]`, the TGI is over 100 µM.
The same measure, in the same setting: as for `O=C(Nc1nc2ccc([N+](=O)[O-])cc2s1)C(=O)C(C1OC(=O)c2ccccc21)[N+](=O)[O-]` (centres undefined), the figure is over 100 µM; as for `COc1cc2cc(OC)c3cc4c(cc3c2c(OC)c1OC)OCO4`, over 100 µM.
In the case of `CCC[CH2][Sn]([CH2]CCC)([S]c1cccc2cccnc12)[S]c1cccc2cccnc12`, the GI50 was 0.355 µM and the TGI turned out to be 2.79 µM.
`COC(=O)C1(C(C)C)CCc2c(OC)ccc(OC)c2C1=O` (centres undefined) displayed a TGI of over 100 µM.

Another assay relates to KM20L2 colon. As to the kind of experiment: inhibition of tumour cell growth, NCI panel, 48 h.
As for `Cc1cnc(NCCCN(C)C)c2c1[nH]c1ccc3cc(O)ccc3c12`, the TGI stood at 2.29 µM.
Turning to `O=C(Nc1ccccc1)c1c(O)[nH]c(=S)[nH]c1=O`, the GI50 was 87.2 µM; the TGI is 125 µM and > 250 µM.
`O=C1/C(=C/c2ccc(O)c(O)c2)CCC/C1=C\c1ccc(O)c(O)c1` came in with a TGI of 23.8 µM.
`NC(=O)NO.O.O.O.O.O.O.O.O.O.O.O.[Ge].[Ge].[Ge].[Ge].[Ge].[O]=[Ge].[O]=[Ge].[O]=[Ge].[O]=[Ge].[O]=[Ge][OH]` displayed a TGI of over 100 µM.
Still for that read-out and setting: the figure for `O=C(Nc1nc2ccc([N+](=O)[O-])cc2s1)C(=O)C(C1OC(=O)c2ccccc21)[N+](=O)[O-]` (centres undefined) is over 100 µM; for `COc1cc2cc(OC)c3cc4c(cc3c2c(OC)c1OC)OCO4` it is 53.5 µM.
For `CCC[CH2][Sn]([CH2]CCC)([S]c1cccc2cccnc12)[S]c1cccc2cccnc12`, the GI50 is 0.215 µM and the TGI turned out to be 0.474 µM.
`COC(=O)C1(C(C)C)CCc2c(OC)ccc(OC)c2C1=O` (centres undefined) yielded a TGI of over 100 µM.

The test system of a further assay is MDA-MB-231 breast. As to the kind of experiment: inhibition of tumour cell growth, NCI panel, 48 h.
As to `Cc1cnc(NCCCN(C)C)c2c1[nH]c1ccc3cc(O)ccc3c12`, the TGI was determined as 2.83 µM.
Take `O=C(Nc1ccccc1)c1c(O)[nH]c(=S)[nH]c1=O`: the TGI came out at 94 µM.
On to `O=C1/C(=C/c2ccc(O)c(O)c2)CCC/C1=C\c1ccc(O)c(O)c1`, for which the TGI was 37.4 µM.

The subject of another assay is MOLT-4 leukemia. Nature of the assay: inhibition of tumour cell growth, NCI panel, 48 h.
The compound `Cc1cnc(NCCCN(C)C)c2c1[nH]c1ccc3cc(O)ccc3c12` registered a TGI of 0.534 µM.
Turning to `O=C(Nc1ccccc1)c1c(O)[nH]c(=S)[nH]c1=O`, the GI50 is 40 µM; the TGI is 53.2 µM and 96.4 µM.
Consider `O=C1/C(=C/c2ccc(O)c(O)c2)CCC/C1=C\c1ccc(O)c(O)c1`, for which the TGI was over 44 µM.
Regarding `NC(=O)NO.O.O.O.O.O.O.O.O.O.O.O.[Ge].[Ge].[Ge].[Ge].[Ge].[O]=[Ge].[O]=[Ge].[O]=[Ge].[O]=[Ge].[O]=[Ge][OH]`, the TGI was over 100 µM.
Regarding `O=C(Nc1nc2ccc([N+](=O)[O-])cc2s1)C(=O)C(C1OC(=O)c2ccccc21)[N+](=O)[O-]` (centres undefined), the TGI is over 100 µM.
The compound `COc1cc2cc(OC)c3cc4c(cc3c2c(OC)c1OC)OCO4` displayed a TGI of over 85.8 µM.
`CCC[CH2][Sn]([CH2]CCC)([S]c1cccc2cccnc12)[S]c1cccc2cccnc12`: the GI50 was 0.109 µM and the TGI stood at 0.397 µM.
Consider `COC(=O)C1(C(C)C)CCc2c(OC)ccc(OC)c2C1=O` (centres undefined), for which the TGI is over 100 µM.

Another assay relates to NCI-H460 lung. Nature of the assay: inhibition of tumour cell growth, NCI panel, 48 h.
For `Cc1cnc(NCCCN(C)C)c2c1[nH]c1ccc3cc(O)ccc3c12`, the TGI was found to be 1.25 µM.
On to `O=C(Nc1ccccc1)c1c(O)[nH]c(=S)[nH]c1=O`, for which the GI50 was 29.5 µM; the TGI was 101 µM and > 250 µM.
`O=C1/C(=C/c2ccc(O)c(O)c2)CCC/C1=C\c1ccc(O)c(O)c1` showed a TGI of 20.1 µM.
The compound `NC(=O)NO.O.O.O.O.O.O.O.O.O.O.O.[Ge].[Ge].[Ge].[Ge].[Ge].[O]=[Ge].[O]=[Ge].[O]=[Ge].[O]=[Ge].[O]=[Ge][OH]` displayed a TGI of over 100 µM.
In turn, `O=C(Nc1nc2ccc([N+](=O)[O-])cc2s1)C(=O)C(C1OC(=O)c2ccccc21)[N+](=O)[O-]` (centres undefined) returned a TGI of over 100 µM.
Still for that read-out and setting: the figure for `COc1cc2cc(OC)c3cc4c(cc3c2c(OC)c1OC)OCO4` is 52 µM.
Regarding `CCC[CH2][Sn]([CH2]CCC)([S]c1cccc2cccnc12)[S]c1cccc2cccnc12`, the GI50 is 0.151 µM and the TGI amounted to 0.356 µM.
On to `COC(=O)C1(C(C)C)CCc2c(OC)ccc(OC)c2C1=O` (centres undefined), for which the TGI was over 100 µM.

Another assay concerns SF-295 CNS. Nature of the assay: inhibition of tumour cell growth, NCI panel, 48 h.
The compound `Cc1cnc(NCCCN(C)C)c2c1[nH]c1ccc3cc(O)ccc3c12` displayed a TGI of 2.89 µM.
In turn, `O=C(Nc1ccccc1)c1c(O)[nH]c(=S)[nH]c1=O` returned a TGI of 108 µM.
`O=C1/C(=C/c2ccc(O)c(O)c2)CCC/C1=C\c1ccc(O)c(O)c1` returned a TGI of 22.1 µM.
For the compound `NC(=O)NO.O.O.O.O.O.O.O.O.O.O.O.[Ge].[Ge].[Ge].[Ge].[Ge].[O]=[Ge].[O]=[Ge].[O]=[Ge].[O]=[Ge].[O]=[Ge][OH]`, the TGI was over 100 µM.
For the compound `O=C(Nc1nc2ccc([N+](=O)[O-])cc2s1)C(=O)C(C1OC(=O)c2ccccc21)[N+](=O)[O-]` (centres undefined), the TGI was over 100 µM.
On the same count and under the same terms, the figure for `COc1cc2cc(OC)c3cc4c(cc3c2c(OC)c1OC)OCO4` is over 76 µM.
With `CCC[CH2][Sn]([CH2]CCC)([S]c1cccc2cccnc12)[S]c1cccc2cccnc12`, the GI50 was 0.404 µM and the TGI came to 1.39 µM.
`COC(=O)C1(C(C)C)CCc2c(OC)ccc(OC)c2C1=O` (centres undefined) displayed a TGI of over 100 µM.

A further assay concerns SK-MEL-28 melanoma. As to the kind of experiment: inhibition of tumour cell growth, NCI panel, 48 h.
Take `Cc1cnc(NCCCN(C)C)c2c1[nH]c1ccc3cc(O)ccc3c12`: the TGI was determined as 2.86 µM.
In the case of `O=C(Nc1ccccc1)c1c(O)[nH]c(=S)[nH]c1=O`, the GI50 was 127 µM; the TGI is 124 µM and > 250 µM.
Take `O=C1/C(=C/c2ccc(O)c(O)c2)CCC/C1=C\c1ccc(O)c(O)c1`: the TGI turned out to be 11.8 µM.
`NC(=O)NO.O.O.O.O.O.O.O.O.O.O.O.[Ge].[Ge].[Ge].[Ge].[Ge].[O]=[Ge].[O]=[Ge].[O]=[Ge].[O]=[Ge].[O]=[Ge][OH]` returned a TGI of over 100 µM.
`O=C(Nc1nc2ccc([N+](=O)[O-])cc2s1)C(=O)C(C1OC(=O)c2ccccc21)[N+](=O)[O-]` (centres undefined) came in with a TGI of over 100 µM.
Compound `COc1cc2cc(OC)c3cc4c(cc3c2c(OC)c1OC)OCO4` yielded a TGI of over 57.6 µM.
As to `CCC[CH2][Sn]([CH2]CCC)([S]c1cccc2cccnc12)[S]c1cccc2cccnc12`, the GI50 was 0.16 µM and the TGI is 0.472 µM.
`COC(=O)C1(C(C)C)CCc2c(OC)ccc(OC)c2C1=O` (centres undefined) yielded a TGI of over 100 µM.

The subject of another assay is SNB-78 CNS. As to the kind of experiment: inhibition of tumour cell growth, NCI panel, 48 h.
`Cc1cnc(NCCCN(C)C)c2c1[nH]c1ccc3cc(O)ccc3c12`: the TGI was 3.86 µM.
`O=C(Nc1ccccc1)c1c(O)[nH]c(=S)[nH]c1=O`: the GI50 was 97.7 µM; the TGI was 124 µM and > 250 µM.
Consider `O=C1/C(=C/c2ccc(O)c(O)c2)CCC/C1=C\c1ccc(O)c(O)c1`, for which the TGI amounted to 8.19 µM.
`NC(=O)NO.O.O.O.O.O.O.O.O.O.O.O.[Ge].[Ge].[Ge].[Ge].[Ge].[O]=[Ge].[O]=[Ge].[O]=[Ge].[O]=[Ge].[O]=[Ge][OH]` had a TGI of over 100 µM.
Still for that read-out and setting: the figure for `O=C(Nc1nc2ccc([N+](=O)[O-])cc2s1)C(=O)C(C1OC(=O)c2ccccc21)[N+](=O)[O-]` (centres undefined) is over 100 µM; for `COc1cc2cc(OC)c3cc4c(cc3c2c(OC)c1OC)OCO4` it is over 100 µM.
In the case of `CCC[CH2][Sn]([CH2]CCC)([S]c1cccc2cccnc12)[S]c1cccc2cccnc12`, the GI50 is 0.203 µM and the TGI was 0.825 µM.
`COC(=O)C1(C(C)C)CCc2c(OC)ccc(OC)c2C1=O` (centres undefined): the TGI was over 100 µM.
